How the values were obtained:
Type in all cases: cell-based, human
DU145 cells = test: CellTiter 96 Aqueous One cell proliferation assay in DU145 cells with or without mimosine; settings: 5 days post transfection, compared with miR-NC, no mimosine
Description: The functional significance of hsa-miR-331-3p and/or hsa-miR-642-5p overexpression in DU145 cells was then investigated. DU145 cells were transfected with pre-miR-331-3p, pre-miR-642-5p, or pre-miR-NC as described above. […] Using the Bliss model (Bliss (1939) Ann Appl. Biol 26:585-615), synergy occurs when the observed fractional inhibition for the combination of hsa-miR-331-3p and/or hsa-miR-642-5p and mimosine (defined as Eobserved) exceeds the sum of the combined miRNA effect and the mimosine effect (defined as EBliss) (Table 3).

DOHH protein = test: Western blot of DOHH protein in transfected DU145 cells; settings: 48 h after transfection
Experimental: The effect of hsa-miR-331-3p and/or hsa-miR-642-5p on endogenous DOHH expression in DU145 prostate cancer cells was assessed by co-transfecting the cells with pre-miR-331-3p, pre-miR-642-5p, or pre-miR-NC essentially as described in Examples 2 and 3, and DOHH mRNA levels were assessed by qRT-PCR of DOHH mRNA. Parallel Western blotting experiments were performed to assess DOHH protein levels, as also described above.

eIF5A = test: Immunoblot of cytoplasmic eIF5A in transfected HeLa cells; settings: HeLa cells transiently over expressing miRNA, total anti-eIF5A antibody, data not shown
Description: Endogenous DOHH mRNA was repressed by both hsa-miR-331-3p and hsa-miR-642-5p in HeLa cells (FIG. 3A).

DOHH 3′-UTR = test: Dual luciferase reporter gene assay in HeLa cells, DOHH 3′-UTR reporter; settings: 1-2 nM pre-miRNA, 24 h after transfection, compared to miR-NC
Description: Synthetic miRNA precursor molecules corresponding to human miR-331-3p (Pre-miR miRNA Precursor Product ID: PM10881), human miR-642-5p (Pre-miR miRNA Precursor Product ID: PM11477) and a negative control miRNA (miR-NC; Pre-miR miRNA Precursor Negative Control #1, Product ID: AM 17110) were obtained from Ambion.
The dual luciferase (firefly and Renilla) reporter miRNA target clone for the DOHH 3′-UTR (catalogue no. HmiT020194-MT01) and the negative control vector (catalogue no. CmiT000001-MT01), both based on the PETZ-MT01 vector containing a SV40 promoter upstream of the hLuc gene, and a CMV reporter upstream of the hRLuc gene, were sourced from Genecopoeia™ (Rockville, USA). […]
(§1) HeLa cells were seeded in 12-well plates and co-transfected using Lipofectamine 2000 (Invitrogen) with 100 ng of either the negative control (empty), DOHH 3′-UTR or ERBB-2 3′-UTR reporter construct (Genecopoeia™) and 1-2 nM final concentration of pre-miR-331-3p, pre-miR-642-5p, a combination of pre-miR-331-3p and pre-miR-642-5p, or pre-miR-NC per well. Lysates were assayed for Firefly and Renilla luciferase activities 24 h after transfection using the Dual Luciferase Reporter Assay System (Promega) and a Fluostar OPTIMA microplate reader (BMG Labtech), and firefly luciferase activities normalised to Renilla luciferase activities to obtain relative reporter gene activity.

[1] = Dual luciferase reporter gene assay in HeLa cells, negative control (empty) reporter vector; settings: 24 h after transfection
Description: The dual luciferase (firefly and Renilla) reporter miRNA target clone for the DOHH 3′-UTR (catalogue no. HmiT020194-MT01) and the negative control vector (catalogue no. CmiT000001-MT01), both based on the PETZ-MT01 vector containing a SV40 promoter upstream of the hLuc gene, and a CMV reporter upstream of the hRLuc gene, were sourced from Genecopoeia™ (Rockville, USA). For miRNA target clones, the DOHH 3′-UTR was inserted downstream of the SV40 promoter/firefly luciferase reporter gene. Firefly luciferase was normalised to Renilla′ luciferase for expression and transfection efficiency.
as §1

ERBB-2 3′-UTR = test: Dual luciferase reporter gene assay in HeLa cells, ERBB-2 3′-UTR reporter (positive control); settings: 24 h after transfection, compared to miR-NC
Experimental: as §1

| Substance | DU145 cell proliferation (DU145 cells) | DOHH protein expression (Western blot) (DOHH protein) | Cytoplasmic levels of eIF5A (eIF5A) | DOHH 3′-UTR reporter activity (firefly normalised to Renilla luciferase) (DOHH 3′-UTR) | Reporter activity of negative control reporter vector [1] | ERBB-2 3′-UTR reporter activity (ERBB-2 3′-UTR) |
| --- | --- | --- | --- | --- | --- | --- |
| hsa-miR-642-5p: human miR-642-5p, 5′-GUCCCUCUCCAAAUGUGUCUUG-3′ (SEQ ID NO:5); transfected as Ambion Pre-miR precursor PM11477 (listed as RNA, chemistry not given here; listed as Homo sapiens) | significantly reduced DU145 cell proliferation | inhibited expression of DOHH protein | unchanged cytoplasmic levels of eIF5A | increased effect on the DOHH 3′UTR compared to the effect of hsa-miR-331-3p |  |  |
| hsa-miR-331-3p: human miR-331-3p, 5′-GCCCCUGGGCCUAUCCUAGAA-3′ (SEQ ID NO:4); transfected as Ambion Pre-miR precursor PM10881 (listed as RNA, chemistry not given here; listed as Homo sapiens) | significantly reduced DU145 cell proliferation | inhibited expression of DOHH protein | unchanged cytoplasmic levels of eIF5A | significant reduction in reporter activity | no significant change in reporter activity | significant reduction in reporter activity |
